This is an account of results in PMC12295927, “Design, Synthesis, and Testing of 1,2,3-Triazolo-Quinobenzothiazine Hybrids for Cytotoxic and Immunomodulatory Activity” (International Journal of Molecular Sciences, 2025).

A word on the IC50: it is the concentration needed to halve the response being measured.

What all share (assay type): cell-based, Human
The subject of one experiment is BCL2 gene. The experiment can be described thus: RT-qPCR BCL2 gene expression in BEAS-2B. The conditions noted are these: 24 h; for fold induction at 100 µM: Homo sapiens, reference gene RPL41, vs untreated control, read-out: Relative level of expression, BCL2 gene. The protocol:
(§1) Real-time polymerase chain reaction was performed for the reference gene RPL41 (ribosomal protein L41) and the tested genes: BCL2, AIFM2, MDM2, IL6 and IL8. […] The BEAS-2B line was selected for the experiment. The expression level of selected genes was measured after 24 h of incubation with the tested substances MJ1–MJ20 at a concentration of 100 μM (Table 3).
The RT-qPCR experiment was performed for the BEAS-2B cell line. In this experiment, the BCL2 gene was studied, and RPL41 was used as the reference gene (Figure 14).
(§2) Gene expression studies used quantitative RT-qPCR to assess the effect of the tested quinobenzothiazines (MJ1–MJ20) on the expression of apoptosis-related genes (BCL2, AIFM2, MDM2) and pro-inflammatory cytokines (IL6, IL8) (Table 4).
(§3) BEAS-2B and HCT116 cells were seeded in 6-well plates at 2 × 10^5 cells per well and cultured in RPMI-1640 (BEAS-2B) or DMEM (HCT116) medium supplemented with 10% FBS and 1% penicillin/streptomycin at 37 °C, 5% CO2 and 95% humidity. After 24 h of incubation, the tested compounds were added at a concentration of 100 µM. After 24 h, the medium was removed from the cells, washed with PBS solution, 0.5 mL of trypsin was added per well and after 5 min it was neutralized with medium. The obtained cell suspension was centrifuged for 3 min at 2000 rpm, the supernatant was removed, and the obtained pellet was suspended in 400 µL of phenozol. Samples were frozen at −20 °C and stored until further experiment and RNA isolation.
(§4) Total RNA was isolated from cells using the A&A Biotechnology Total RNA Mini kit according to the manufacturer’s protocol. RNA quality and quantity were assessed using a NanoDrop 2000 spectrophotometer at 260/280 nm. Reverse transcription was performed using the protocol (EURx NG dART RT Kit) to obtain cDNA. After incubation, samples were placed in a freezer (−20 °C) and stored until further analysis.
(§5) The experiment was performed according to the protocol (Brilliant III Ultra Fast SYBR® Green QPCR Master Mix, Quick Reference Guide for the Bio-Rad CFX96 Real-Time PCR Detection System). RT-qPCR reaction was performed using specific primers for target genes (BCL2, AIFM2, MDM2, IL6, IL8). Gene expression was normalized to the expression of the reference gene RPL41. Reaction profiles and results were performed using Bio-Rad CFX Maestro 1.1 software from Bio-Rad. Analysis and calculations of the results obtained during RT-qPCR were performed using Microsoft Excel.
(§6) The results were analyzed using the R = 2^−ΔΔCt method, which allows for determining the relative level of gene expression (R) compared to the control. Each experiment was performed in three technical and biological replicates. RT-qPCR allowed for precise assessment of changes in the expression of genes related to the processes of apoptosis and inflammatory response under the influence of quinobenzothiazines, which allowed for identifying their potential mechanisms of action at the molecular level.

The test system of a further experiment is AIFM2 gene. The experiment can be described thus: RT-qPCR AIFM2 gene expression in BEAS-2B. The conditions noted are these: 24 h; for AIFM2 expression increase: 100 μM, compared to control; for fold induction at 100 µM: Homo sapiens, reference gene RPL41, vs untreated control, read-out: Relative level of expression, AIFM2 gene. The protocol: as §1
The RT-qPCR experiment was performed for the BEAS-2B cell line. In this experiment, the AIFM2 gene was studied and RPL41 was used as reference gene (Figure 16).
as §2, §3, §4, §5, §6
On the technique in general: In qPCR the cycle at which signal appears reflects the starting amount.

A further experiment deals with MDM2 gene. The experiment can be described thus: RT-qPCR MDM2 gene expression in BEAS-2B. Conditions: 24 h; for fold induction at 100 µM: Homo sapiens, reference gene RPL41, vs untreated control, read-out: Relative level of expression, MDM2 gene. The method, then:
as §1
The RT-qPCR experiment was performed for the BEAS-2B cell line. In this experiment, the MDM2 gene was studied and RPL41 was used as reference gene (Figure 15).
as §2, §3, §4, §5, §6

A further experiment concerns BEAS-2B. In words: Alamar Blue cytotoxicity test, BEAS-2B. Conditions: Homo sapiens, 24 h, 24 h incubation, read-out: IC50 values for BEAS-2B line. The method, then:
The cytotoxicity of the tested chemical compounds MJ1–MJ20 was tested using the Alamar Blue test. The experiment was conducted on cell lines BEAS-2B (Figure 7), HCT116 (Figure 8), U2OS (Figure 9), MCF7 (Figure 10), SH-SY5Y (Figure 11), NHDF (Figure 12), and A549 (Figure 13). Cells were seeded in 96-well plates and incubated with the tested compounds for 24 h. The test result is the IC50 parameter, which is a measure of cytotoxic activity expressed by the concentration of the substance that causes the death of half of the analyzed cells compared to the control.
In cytotoxicity studies, the Alamar Blue test was used, which is based on the ability of living cells to reduce the non-fluorescent dye resazurin to fluorescent resorufin, which reflects the metabolic activity of cells. BEAS-2B, NHDF, HCT116, MCF7, A549, SH-SY5Y and U2OS cell lines were cultured under standard conditions, in DMEM medium supplemented with 10% FBS and 1% penicillin/streptomycin, at 37 °C, 5% CO2 and 95% humidity. Cells were seeded in 96-well plates at 1 × 10^4 cells per well and incubated for 24 h. Then, the tested compounds (MJ1–MJ20) were added at different concentrations (from 6.25 µM to 100 µM). The control contained cells untreated with the tested compounds. After 24 h of incubation, 10 µL of Alamar Blue solution was added to each well and incubated for another 2–4 h under the same conditions. The signal was measured spectrophotometrically at wavelengths of 570 nm (for resorufin) and 600 nm (for resazurin) or optionally fluorimetrically, using an excitation maximum of 570 nm and an emission maximum of 585 nm. The results were presented as percentage of cell survival relative to the control, calculating the ratio of absorbance or fluorescence of the sample to the control value. The Alamar Blue assay, due to its sensitivity and non-toxicity, allows for an accurate assessment of metabolic activity and cell survival in response to the tested quinobenzothiazines.
On the technique in general: Alamar Blue is a resazurin reagent that responds to reducing activity.

On to `Fc1ccc(Cn2cc(CN3c4ccccc4Sc4cc5ccccc5nc43)nn2)cc1` [MJ2, 6-((1-(4-Fluorobenzyl)-1H-1,2,3-triazol-4-yl)methyl)-quino[3,2-b]benzo[1,4]thiazine], for which the fold induction at 100 µM worked out at 6.5 in the experiment on BCL2 gene, 11.4 with AIFM2 gene and 6.3 with MDM2 gene. This molecule came in with an AIFM2 expression increase with AIFM2 gene of 11.4 fold. For the same molecule, in the experiment on BEAS-2B, the IC50 was determined as 76.2 µM.

With `Fc1ccc2c(c1)Sc1cc3ccccc3nc1N2Cc1cn(Cc2ccc(Cl)cc2)nn1` [MJ8, 9-Fluoro-6-[(1-(4-chlorobenzyl)-1H-1,2,3-triazol-4-yl)methyl]-quino[3,2-b]benzo-[1,4]thiazine], the figures for the fold induction at 100 µM with BCL2 gene, in the experiment with AIFM2 gene and with MDM2 gene were 10.1, 4.2 and 8.1, respectively. Also, the IC50 with BEAS-2B stood at 71.9 µM.

As for `Clc1ccc2c(c1)Sc1cc3ccccc3nc1N2Cc1cn(CSc2ccccc2)nn1` [MJ15, 9-Chloro-6-((1-((phenylthio)methyl)-1H-1,2,3-triazol-4-yl)methyl)-quino[3,2-b]benzo[1,4]thiazine], the fold induction at 100 µM is 60.3 in the experiment on BCL2 gene, 2.6 in the experiment on AIFM2 gene and 6.4 with MDM2 gene. Besides, the IC50 in the experiment on BEAS-2B is 87.2 µM.

In turn, `CSc1ccc2c(c1)Sc1cc3ccccc3nc1N2Cc1cn(Cc2ccc(C#N)cc2)nn1` [MJ19, 4-((4-((9-Methylthioquino[3,2-b]benzo[1,4]thiazin-6-yl)methyl)-1H-1,2,3-triazol-1-yl)methyl)benzonitrile] had a BCL2 expression increase with BCL2 gene (100 μM, compared to control) of 208 fold. Moreover, the results for the fold induction at 100 µM with BCL2 gene, in the experiment on AIFM2 gene and in the experiment with MDM2 gene were 208, 14.9 and 10.3, respectively. The molecule further returned an AIFM2 expression increase with AIFM2 gene of 14.9 fold. In addition, the MDM2 expression increase in the experiment with MDM2 gene (100 μM, compared to control) amounted to 10.3 fold. Also, in the experiment with BEAS-2B, the IC50 worked out at 72.7 µM.
